According to patent publication US8048898B2, “Inhibitor of binding of S1P1” (Taisho Pharmaceutical Co., Ltd, priority 2007, dated 2011):

Target: T1, human Edg-1(S1P1) (Homo sapiens, UniProt P21453)
T1 construct: expressed in transfected cells; host or cells: HEK-293
Assay: S1P1 Binding Test ([33P]-S1P, membrane fraction of HEK-293 cell line carrying the human Edg-1(S1P1) gene)
Conditions: [33P]-S1P 0.1 nM; for inhibition at 10 µM: compound at 10 μM, 30° C., 1 hour, read-out: inhibition rate of Edg-1(S1P1) binding; for IC50: membrane binding test at various concentrations, read-out: IC50 value, Edg-1(S1P1) binding inhibition
Description: The membrane fraction of a HEK-293 cell line carrying the human Edg-1(S1P1) gene was used to study the compounds of the present invention for their inhibitory effect on Edg-1(S1P1) binding, as described in Science. […] To obtain the membrane fraction, treatment with solubilizing buffer (1 mM Tris/HCl, pH 7.2) for 10 minutes on ice was performed, followed by centrifugation at 1000×g for 5 minutes to remove an insoluble fraction and then at 40000×g for 30 minutes at 4° C. The resulting membrane fraction was dissolved in binding buffer (20 mM Tris-HCl, pH 7.4, 100 mM NaCl, 15 mM NaF, 2 mM deoxypyridoxine, 4 mg/mL fatty acid-free BSA), followed by addition of binding buffer containing [^33P]-S1P (ARC, final concentration: 0.1 nM) and DMSO solution of a test compound (final concentration of the compound: 10^−5 M, final concentration of DMSO: 0.1%). After stirring, the reaction solution was incubated at 30° C. for 1 hour. The membrane fraction was collected onto a unifilter-96 GF/C filter (Perkin Elmer) using a harvester and washed four times with binding buffer, followed by drying the filter. After addition of 25 μL Microscint 0 (Perkin Elmer), radioactivity was measured with a Top Count NXT (Packard) to calculate amount (A), i.e., the amount of [^33P]-S1P binding to the membrane fraction in the presence of the compound.
The same procedure was performed in the absence of any test compound to calculate amount (B), i.e., the amount of [^33P]-S1P binding. Moreover, the same procedure was also performed with HEK-293 cells carrying no Edg-1(S1P1) gene in the absence of any test compound to calculate amount (C), i.e., the amount of background [^33P]-S1P binding.
The inhibition rate of Edg-1(S1P1) binding was calculated for each compound by the following equation. Inhibition rate (%)=[1−(A−C)/(B−C)]×100
Moreover, the activity of each test compound was calculated as a value (IC50 value) showing 50% of the radioactivity obtained in the absence of any test compound. Namely, the above membrane system binding test was performed in the presence of a test compound at various concentrations to calculate an IC50 value according to the dose-dependent inhibition curve analyzed with data analysis software, Origin (Lightstone Corp., Japan).

T1 sequence (P21453 whole entry): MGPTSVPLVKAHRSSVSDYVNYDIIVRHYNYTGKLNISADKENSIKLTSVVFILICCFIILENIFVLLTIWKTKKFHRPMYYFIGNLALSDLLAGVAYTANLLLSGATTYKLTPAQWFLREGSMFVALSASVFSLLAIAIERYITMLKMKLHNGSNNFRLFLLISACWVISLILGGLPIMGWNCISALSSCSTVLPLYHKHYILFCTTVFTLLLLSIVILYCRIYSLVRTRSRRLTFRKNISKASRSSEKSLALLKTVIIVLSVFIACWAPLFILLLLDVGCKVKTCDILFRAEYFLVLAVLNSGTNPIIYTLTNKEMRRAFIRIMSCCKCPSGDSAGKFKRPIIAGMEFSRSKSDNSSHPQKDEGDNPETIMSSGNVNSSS

| inhibition at 10 µM | IC50 | Molecule |
| --- | --- | --- |
| ≥ 3% |  | CCc1c(C(C)NS(=O)(=O)c2cccc(C)c2)ccnc1Oc1cccc(N2CCOCC2)c1 (stereo not shown) [Compound 34] |
| ≥ 3% | 66 nM | CCc1c(C(C)NS(=O)(=O)c2ccc(Cl)c(Cl)c2)ccnc1Oc1cccc(N2CCOCC2)c1 (stereo not shown) [Compound 19] |
| ≥ 3% | 51 nM | CCc1c(C(C)NS(=O)(=O)c2ccc3c(Cl)cccc3c2)ccnc1Oc1cccc(N2CCOCC2)c1 (stereo not shown) [Compound 27, 5-Chloronaphthalene-2-sulfonic acid {1-[3-ethyl-2-(3-morpholin-4-yl-phenoxy)-pyridin-4-yl]-ethyl}-amide] |
| ≥ 3% |  | CCc1c(C(C)N(C)S(=O)(=O)c2ccc3c(Cl)cccc3c2)ccnc1Oc1cccc(N2CCOCC2)c1 (stereo not shown) [Compound 60, 5-Chloronaphthalene-2-sulfonic acid {1-[3-ethyl-2-(3-morpholin-4-yl-phenoxy)-pyridin-4-yl]-ethyl}-methyl-amide] |
| ≥ 3% |  | CCc1c(C(C)NS(=O)(=O)c2ccc(Cl)c(Cl)c2)ccnc1OC(C)C (stereo not shown) [Compound 26, 3,4-Dichloro-N-[1-(2-isopropoxy-3-ethyl-pyridin-4-yl)-ethyl]-benzenesulfonamide] |
| ≥ 3% |  | CCc1c(C(C)NS(=O)(=O)c2ccc(Cl)c(Cl)c2)ccnc1Oc1ccc2ccccc2c1 (stereo not shown) [Compound 21] |
| ≥ 3% | 107 nM | CCc1c(C(C)NS(=O)(=O)c2ccc(Cl)c(Cl)c2)ccnc1Oc1cccc(N2CCN(C)CC2)c1 (stereo not shown) [Compound 3, 3,4-Dichloro-N-(1-{3-ethyl-2-[3-(4-methyl-piperazin-1-yl)-phenoxy]-pyridin-4-yl}-ethyl)-benzenesulfonamide] |
| ≥ 3% |  | CCc1c(C(C)NS(=O)(=O)c2ccc([N+](=O)[O-])cc2)ccnc1Oc1cccc(N2CCOCC2)c1 (stereo not shown) [Compound 39] |
| ≥ 3% |  | CCc1c(C(C)NS(=O)(=O)c2ccc(Cl)c(Cl)c2)ccnc1OCc1ccccc1 (stereo not shown) [Compound 25] |
| ≥ 3% | 35 nM | CCc1c(C(C)NS(=O)(=O)c2ccc3c(Cl)cccc3c2)ccnc1Oc1cccc(N2CCN(C)CC2)c1 (stereo not shown) [Compound 31] |
| ≥ 3% |  | CCc1c(C(C)NS(=O)(=O)c2ccc(C(F)(F)F)cc2)ccnc1Oc1cccc(N2CCOCC2)c1 (stereo not shown) [Compound 37] |
| ≥ 3% |  | CCc1c(C(C)NS(=O)(=O)c2ccc(OC(F)(F)F)cc2)ccnc1Oc1cccc(N2CCOCC2)c1 (stereo not shown) [Compound 38] |
| ≥ 3% |  | CCc1c([C@H](C)NS(=O)(=O)c2ccc(Cl)c(Cl)c2)ccnc1Oc1cccc(N2CCN(C)CC2)c1 [Compound 29, (S)-3,4-Dichloro-N-(1-{3-ethyl-2-[3-(4-methyl-piperazin-1-yl)-phenoxy]-pyridin-4-yl}-ethyl)-benzenesulfonamide] |
| ≥ 3% |  | CCc1c(C(C)NS(=O)(=O)c2ccc3c(Cl)cccc3c2)ccnc1S(=O)(=O)c1ccc(C)cc1 (stereo not shown) [Compound 59, 5-Chloronaphthalene-2-sulfonic acid {1-[3-ethyl-2-(toluene-4-sulfonyl)-pyridin-4-yl]-ethyl}-amide] |
| ≥ 3% |  | CCc1c(C(C)NS(=O)(=O)c2ccc(Cl)c(Cl)c2)ccnc1Oc1ccc(OC)cc1 (stereo not shown) [Compound 17] |
| ≥ 3% |  | CC(NS(=O)(=O)c1ccc(Cl)c(Cl)c1)c1ccnc(Oc2cccc(N3CCN(C)CC3)c2)c1 (stereo not shown) [Compound 8] |
| ≥ 3% |  | CCc1c(C(C)NS(=O)(=O)c2ccc(C)c(Cl)c2)ccnc1Oc1cccc(N2CCOCC2)c1 (stereo not shown) [Compound 46] |
| ≥ 3% |  | CCc1c(C(C)NS(=O)(=O)c2cc3ccccc3s2)ccnc1Oc1cccc(N2CCOCC2)c1 (stereo not shown) [Compound 51] |
| ≥ 3% |  | CCc1c(C(C)NS(=O)(=O)c2ccc3ncccc3c2)ccnc1Oc1cccc(N2CCOCC2)c1 (stereo not shown) [Compound 50] |
| ≥ 3% |  | CCc1c(C(C)NS(=O)(=O)c2ccc3c(Cl)cccc3c2)ccnc1Sc1ccc(C)cc1 (stereo not shown) [Compound 58, 5-Chloronaphthalene-2-sulfonic acid [1-(3-ethyl-2-p-toluylsulfanyl-pyridin-4-yl)-ethyl]-amide] |
| ≥ 3% |  | CCc1c(Oc2ccc(C)cc2)nc(C)nc1C(C)NS(=O)(=O)c1ccc2c(Cl)cccc2c1 (stereo not shown) [Compound 2] |

| inhibition at 10 µM | IC50 | Molecule |
| --- | --- | --- |
| ≥ 3% |  | CCc1c(CNS(=O)(=O)c2ccc3c(Cl)cccc3c2)ccnc1Oc1cccc(N2CCN(C)CC2)c1 [Compound 15] |
| ≥ 3% | 63 nM | CCc1c(C(C)NS(=O)(=O)c2ccc(Cl)c(Cl)c2Cl)ccnc1Oc1cccc(N2CCOCC2)c1 (stereo not shown) [Compound 48] |
| ≥ 3% |  | CCc1c(C(C)NS(=O)(=O)c2ccc(C(C)=O)cc2)ccnc1Oc1cccc(N2CCOCC2)c1 (stereo not shown) [Compound 44] |
| ≥ 3% |  | CCc1c(C(C)NS(=O)(=O)c2ccc(Cl)cc2Cl)ccnc1Oc1cccc(N2CCOCC2)c1 (stereo not shown) [Compound 56] |
| ≥ 3% |  | CCc1c(C(C)NS(=O)(=O)c2ccc(Cl)cc2)ccnc1Oc1cccc(N2CCOCC2)c1 (stereo not shown) [Compound 41] |
| ≥ 3% | 49 nM | CCc1c([C@@H](C)NS(=O)(=O)c2ccc(Cl)c(Cl)c2)ccnc1Oc1cccc(N2CCN(C)CC2)c1 [Compound 28, (R)-3,4-Dichloro-N-(1-{3-ethyl-2-[3-(4-methyl-piperazin-1-yl)-phenoxy]-pyridin-4-yl}-ethyl)-benzenesulfonamide] |
| ≥ 3% |  | CCc1c(C(C)NS(=O)(=O)c2ccc(C#N)cc2)ccnc1Oc1cccc(N2CCOCC2)c1 (stereo not shown) [Compound 40] |
|  | 121 nM | 5-Chloro-naphthalene-2-sulfonic acid (1-{3-ethyl-4-[3-(4-methyl-piperazin-1-yl)-phenoxy]-pyridin-2-yl}-ethyl)-amide [Compound 4] |
| ≥ 3% |  | CCc1c(C(C)NS(=O)(=O)c2ccc(F)c(Cl)c2)ccnc1Oc1cccc(N2CCOCC2)c1 (stereo not shown) [Compound 45] |
| ≥ 3% |  | CCc1c(C(C)NS(=O)(=O)c2ccccc2C)ccnc1Oc1cccc(N2CCOCC2)c1 (stereo not shown) [Compound 33] |
| ≥ 3% |  | CCc1c(C(C)NS(=O)(=O)c2ccccc2F)ccnc1Oc1cccc(N2CCOCC2)c1 (stereo not shown) [Compound 43] |
| ≥ 3% |  | CCc1c(C(C)NS(=O)(=O)c2cccnc2)ccnc1Oc1cccc(N2CCOCC2)c1 (stereo not shown) [Compound 49] |
| ≥ 3% | ≤ 200 nM | CCc1c(C(C)NS(=O)(=O)c2ccc(Cl)c(Cl)c2)ccnc1Oc1cccc(N(C)C)c1 (stereo not shown) [Compound 22] |
| ≥ 3% |  | CCc1ccc(S(=O)(=O)NC(C)c2ccnc(Oc3cccc(N4CCOCC4)c3)c2CC)cc1 (stereo not shown) [Compound 35] |
| ≥ 3% |  | CCc1c(C(C)NS(=O)(=O)/C=C/c2ccccc2)ccnc1Oc1cccc(N2CCOCC2)c1 (stereo not shown) [Compound 53] |
| ≥ 3% |  | CCc1c(Oc2cccc(N3CCN(C)CC3)c2)ccnc1C(C)NS(=O)(=O)c1ccc(Cl)c(Cl)c1 (stereo not shown) [Compound 5] |
| ≥ 3% |  | CCc1c(C(C)NS(=O)(=O)c2ccc3c(Cl)cccc3c2)ccnc1Sc1cccc(N2CCN(C)CC2)c1 (stereo not shown) [Compound 62] |
| ≥ 3% |  | CCc1c(C(C)NS(=O)(=O)c2ccccc2)ccnc1Oc1cccc(N2CCOCC2)c1 (stereo not shown) [Compound 32] |
| ≥ 3% | ≤ 200 nM | CCc1c(C(C)NS(=O)(=O)c2ccc3c(Cl)ccc(Cl)c3c2)ccnc1Oc1cccc(N2CCOCC2)c1 (stereo not shown) [Compound 57] |
| ≥ 3% |  | CCc1c(C(CC)NS(=O)(=O)c2ccc(Cl)c(Cl)c2)ccnc1Oc1cccc(N2CCN(C)CC2)c1 (stereo not shown) [Compound 12] |
